Data as given in patent US9976141B2, “Compositions and methods for inhibiting gene expression of Hif2alpha” (Arrowhead Madison Inc., priority 2015, dated 2018).

What follows are substances tested on human (tumor) Hif2α (EPAS1) mRNA (assay: Hif2α knockdown in orthotopic RCC tumor bearing mice, single injection of RNAi trigger-delivery polymer conjugate, RT-qPCR (Table 7)). Settings: RNAi trigger 50 μg, polymer 064 125 μg; single tail vein injection; relative to isotonic glucose.
Format: in vivo
Procedure, shortened: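 Female athymic nude mice carried orthotopic A498-SEAP ccRCC kidney tumours, used 5–6 weeks after implantation. They received one tail-vein injection of RGD-targeted Hif2α RNAi trigger–polymer conjugate or isotonic glucose. Tumour Hif2α mRNA was measured by TaqMan RT-qPCR normalised to CycA (ΔΔCT) and expressed relative to glucose-treated mice.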

Substance	Relative Expression day 4 (Hif2α mRNA in kidney tumor)
AD02860 (antisense UUUCAUGAAAUCGUUACGUUG; sense ACGUAACGAUUUCAUGAAAT; Hif2alpha RNAi agent antisense strand; modified_base 2,3,8,10,14 /mod_base = “2′-deoxy-2′-fluoro corresponding nucleoside”; modified_base 1,4,5,6,7,9,11,12,13,15,16,17,18,19,20,21 /mod_base = “2′-O-methyl corresponding nucleoside”; modified_base 2,3,20,21 /mod_base = “5′-phosphorothioate corresponding nucleotide”; Hif2alpha RNAi agent sense strand; modified_base 7,8,9 /mod_base = “2′-deoxy-2′-fluoro corresponding nucleoside”; modified_base 1,2,3,4,5,6,10,11,12,13,14,15,16,17,18,19 /mod_base = “2′-O-methyl corresponding nucleoside”; modified_base 20 /mod_base = “3′-3′-linked nucleotide”; modi)	0.165
AD02861 (antisense UUUCAUGAAAUCGUUACGUUG; sense UAUACGUAACGAUUUCAUGAAAT; Hif2alpha RNAi agent antisense strand; modified_base 2,4,6,8,10,14 /mod_base = “2′-deoxy-2′-fluoro corresponding nucleoside”; modified_base 1,3,5,7,9,11,12,13,15,16,17,18,19,20,21 /mod_base = “2′-O-methyl corresponding nucleoside”; modified_base 2,3,20,21 /mod_base = “5′-phosphorothioate corresponding nucleotide”; Hif2alpha RNAi agent sense strand; modified_base 2 modified base = “2′-hydroxy corresponding nucleoside”; modified_base 10,11,12 /mod_base = “2′-deoxy-2′-fluoro corresponding nucleoside”; modified_base 1,3,4,5,6,7,8,9,13,14,15,16,17,18,19,20,21,22 /mod_base = “2′-O-methyl correspon)	0.103
AD02862 (antisense AUUCAUGAAAUCGUUACGUUG; sense UAUACGUAACGAUUUCAUGAAUT; Hif2alpha RNAi agent antisense strand; modified_base 2,4,6,8,10,14,16,18 /mod_base = “2′-deoxy-2′-fluoro corresponding nucleoside”; modified_base 1,3,5,7,9,11,12,13,15,17,19,20,21 /mod_base = “2′-O-methyl corresponding nucleoside”; modified_base 2,3,20,21 /mod_base = “5′-phosphorothioate corresponding nucleotide”; Hif2alpha RNAi agent sense strand; modified_base 2 modified base = “2′-hydroxy corresponding nucleoside”; modified_base 6,8,10,11,12,16,18,20 /mod_base = “2′-deoxy-2′-fluoro corresponding nucleoside”; modified_base 1,3,4,5,7,9,13,14,15,17,19,21,22 /mod_base = “2′-O-methyl correspon)	0.093
AD02873 (antisense UUUCAUGAAAUCGUUACGUUG; sense UAUACGUAACGAUUUCAUGAAAT; Hif2alpha RNAi agent antisense strand; modified_base 2,4,6,8,10,14,16,18 /mod_base = “2′-deoxy-2′-fluoro corresponding nucleoside”; modified_base 1,3,5,7,9,11,12,13,15,17,19,20,21 /mod_base = “2′-O-methyl corresponding nucleoside”; modified_base 2,3,20,21 /mod_base = “5′-phosphorothioate corresponding nucleotide”; Hif2alpha RNAi agent sense strand; modified_base 2 modified base = “2′-hydroxy corresponding nucleoside”; modified_base 6,8,10,11,12,16,18,20 /mod_base = “2′-deoxy-2′-fluoro corresponding nucleoside”; modified_base 1,3,4,5,7,9,13,14,15,17,19,21,22 /mod_base = “2′-O-methyl correspon)	0.079
AD02874 (antisense UUUCAUGAAAUCGUUACGUUG; sense UAUACGUAACGAUUUCAUGAAAT; Hif2alpha RNAi agent antisense strand; modified_base 2,4,6,8,10,14,16,18 /mod_base = “2′-deoxy-2′-fluoro corresponding nucleoside”; modified_base 1,3,5,7,9,11,12,13,15,17,19,20,21 /mod_base = “2′-O-methyl corresponding nucleoside”; modified_base 2,3,20,21 /mod_base = “5′-phosphorothioate corresponding nucleotide”; Hif2alpha RNAi agent sense strand; modified_base 2 modified base = “2′-hydroxy corresponding nucleoside”; modified_base 10,11,12,16 /mod_base = “2′-deoxy-2′-fluoro corresponding nucleoside”; modified_base 1,3,4,5,6,7,8,9,13,14,15,17,18,19,20,21,22 /mod_base = “2′-O-methyl correspon)	0.138
AD02875 (antisense AUUCAUGAAAUCGUUACGUUG; sense UAUACGUAACGAUUUCAUGAAUT; Hif2alpha RNAi agent antisense strand; modified_base 2,4,6,8,10,14,16,18 /mod_base = “2′-deoxy-2′-fluoro corresponding nucleoside”; modified_base 1,3,5,7,9,11,12,13,15,17,19,20,21 /mod_base = “2′-O-methyl corresponding nucleoside”; modified_base 2,3,20,21 /mod_base = “5′-phosphorothioate corresponding nucleotide”; Hif2alpha RNAi agent sense strand; modified_base 2 modified base = “2′-hydroxy corresponding nucleoside”; modified_base 10,11,12,16 /mod_base = “2′-deoxy-2′-fluoro corresponding nucleoside”; modified_base 1,3,4,5,6,7,8,9,13,14,15,17,18,19,20,21,22 /mod_base = “2′-O-methyl correspon)	0.101
AD02949 (antisense UUUCAUGAAAUCGUUACGUUG; sense ACGUAACGAUUUCAUGAAAT; Hif2alpha RNAi agent antisense strand; modified_base 2,4,6,8,10,14,16,18 /mod_base = “2′-deoxy-2′-fluoro corresponding nucleoside”; modified_base 1,3,5,7,9,11,12,13,15,17,19,20,21 /mod_base = “2′-O-methyl corresponding nucleoside”; modified_base 2,3,20,21 /mod_base = “5′-phosphorothioate corresponding nucleotide”; Hif2alpha RNAi agent sense strand; modified_base 7,9,13 /mod_base = “2′-deoxy-2′-fluoro corresponding nucleoside”; modified_base 1,2,3,4,5,6,8,10,11,12,14,15,16,17,18,19 /mod_base = “2′-O-methyl corresponding nucleoside”; modified_base 20 /mod_base = “3′-3′-linked nucleotide”; modi)	0.176
AD03011 (antisense UUUCAUGAAAUCGUUACGUUG; sense UAUACGUAACGAUUUCAUGAAAT; Hif2alpha RNAi agent antisense strand; modified_base 2,4,6,8,10,14,16,18 /mod_base = “2′-deoxy-2′-fluoro corresponding nucleoside”; modified_base 1,3,5,7,9,11,12,13,15,17,19,20,21 /mod_base = “2′-O-methyl corresponding nucleoside”; modified_base 2,3,20,21 /mod_base = “5′-phosphorothioate corresponding nucleotide”; Hif2alpha RNAi agent sense strand; modified_base 2 modified base = “2′-hydroxy corresponding nucleoside”; modified_base 10,12,16 /mod_base = “2′-deoxy-2′-fluoro corresponding nucleoside”; modified_base 1,3,4,5,6,7,8,9,11,13,14,15,17,18,19,20,21,22 /mod_base = “2′-O-methyl correspon)	0.183
AD03187 (antisense UGUAAAACAAUUGUGUACUUU; sense AGUACACAAUUGUUUUACAT; Hif2alpha RNAi agent antisense strand; modified_base 2,4,6,8,10,14,16,18 /mod_base = “2′-deoxy-2′-fluoro corresponding nucleoside”; modified_base 1,3,5,7,9,11,12,13,15,17,19,20,21 /mod_base = “2′-O-methyl corresponding nucleoside”; modified_base 2,3,20,21 /mod_base = “5′-phosphorothioate corresponding nucleotide”; Hif2alpha RNAi agent sense strand; modified_base 3,5,7,8,9,11,13,17 /mod_base = “2′-deoxy-2′-fluoro corresponding nucleoside”; modified_base 1,2,4,6,10,12,14,15,16,18,19 /mod_base = “2′-O-methyl corresponding nucleoside”; modified_base 20 /mod_base = “3′-3′-linked nucleotide”; modi)	1.000
